Measured values published in patent publication US11096923B2, “Pharmaceutical composition containing polymyxin B/trimethoprim based therapeutics” (University of Rochester, priority 2016, dated 2021).
Values joined by “and” are separate entries in the source; they are usually repeats but may differ in a detail not shown here. Equal entries are not always repeated.

How the values were obtained:
P. aeruginosa = experiment: Fractional inhibitory concentration, checkerboard MIC; type: cell-based, Pseudomonas aeruginosa; conditions: for MIC in combination: PT combined with tobramycin; for MIC: Pseudomonas aeruginosa
S. aureus = experiment: as above; type: cell-based, Staphylococcus aureus; conditions: for MIC in combination: PT combined with tobramycin; for MIC: Staphylococcus aureus
S. aureus UAMS-1 = experiment: Selleck library screen in presence of sub-inhibitory polymyxin B/trimethoprim; type: cell-based, Staphylococcus aureus; parameters: key: Growth (+); no growth (−)
P. aeruginosa PAO1 = experiment: as above; type: cell-based, Pseudomonas aeruginosa; parameters: key: Growth (+); no growth (−)
[1] = tested on: S. aureus UAMS-1 biofilms; experiment: Biofilm susceptibility; type: cell-based, Staphylococcus aureus; conditions: established S. aureus biofilm, any concentration tested
From the text: Bacterial strains used in these studies include the conventional laboratory strains Pseudomonas aeruginosa PA01 and Staphylococcus aureus UAMS-1, both of which are antibiotic susceptible and capable of forming robust biofilms. See […], Thomas J R, Nelson […]. Role of the accessory gene regulator (agr) in pathogenesis of staphylococcal osteomyelitis. Infection and immunity 1995; 63:3373-3380. Seven clinical keratitis isolates of Pseudomonas aeruginosa, were collected from the Flaum Eye Institute, Rochester N.Y. and 25 clinical isolates of Staphylococcus aureus from geographically distinct regions of the country where purchased from International Health Management Associates (IHMA; Schaumburg, Ill.). For experiments requiring planktonic cultures, the indicated organism was grown overnight in Luria-Bertani broth (LB; […] Biofilms were established by inoculating individual wells of flat-bottom polystyrene plates (Falcon, Corning Life Sciences; Durham, N.C.) with overnight cultures of the indicated organism into 200 ul of fresh LB to a final concentration of 1×10^7 CFU ml^-1. Plates were placed in a 37° C.-humidified incubator for 72 hours to allow static biofilm formation. Non-adherent cells were aspirated and biofilms were washed twice with phosphate-buffered saline prior to each experiment. […] After 24 hrs the remaining media and non-adherent cells were removed, biofilms were suspended in 0.8% NaCl and plated to quantify surviving bacteria. […] Biofilms were treated in increasing increments ranging from 0 to 64×MIC.

[2] = tested on: planktonic P. aeruginosa cells; experiment: Antimicrobial kill curves; type: cell-based, Pseudomonas aeruginosa; conditions: 2× MIC
Method: Overnight cultures of the indicated organism were used to inoculate (1:100 dilution) 100 ml of fresh media and grown to mid-exponential phase. […] Aliquots were taken at 1, 2, 3, 4, and 24 hours, serial diluted and plated for colony forming units.

## NC[C@H]1O[C@H](O[C@H]2[C@H](O)[C@@H](O[C@H]3O[C@H](CO)[C@@H](O)[C@H](N)[C@H]3O)[C@H](N)C[C@@H]2N)[C@H](N)C[C@@H]1O [Tobramycin, tobramycin]
P. aeruginosa; P. aeruginosa PAO1
  MIC in combination: 0.12 µg/mL and 0.24 µg/mL
P. aeruginosa; P. aeruginosa RW01
  MIC in combination: 0.12 µg/mL
  MIC: 0.24 µg/mL
P. aeruginosa; P. aeruginosa RW02
  MIC in combination: 0.06 µg/mL
  MIC: 0.24 µg/mL
P. aeruginosa; P. aeruginosa RW03
  MIC in combination: 0.12 µg/mL
  MIC: 0.24 µg/mL
P. aeruginosa; P. aeruginosa RW04
  MIC in combination: 0.12 µg/mL
  MIC: 0.48 µg/mL
P. aeruginosa; P. aeruginosa RW05
  MIC in combination: 0.24 µg/mL
  MIC: 0.48 µg/mL
P. aeruginosa; P. aeruginosa RW06
  MIC in combination: 0.12 µg/mL
  MIC: 0.24 µg/mL
P. aeruginosa; P. aeruginosa RW07
  MIC in combination: 0.12 µg/mL
  MIC: 0.24 µg/mL
P. aeruginosa; PAO1, P. aeruginosa PAO1
  MIC: 0.48 µg/mL
S. aureus; S. aureus 1071788
  MIC in combination: 0.48 µg/mL
  MIC: 0.97 µg/mL
S. aureus; S. aureus 1094094
  MIC in combination: 3.9 µg/mL
  MIC: 3.9 µg/mL
S. aureus; S. aureus 1094140
  MIC in combination: 1.9 µg/mL
  MIC: 7.8 µg/mL
S. aureus; S. aureus 1094147
  MIC in combination: 3.9 µg/mL
  MIC: 7.8 µg/mL
S. aureus; S. aureus 1094166
  MIC in combination: 0.48 µg/mL
  MIC: 1.9 µg/mL
S. aureus; S. aureus 1094178
  MIC in combination: 7.8 µg/mL
  MIC: 7.8 µg/mL
S. aureus; S. aureus 1097612
  MIC in combination: 3.9 µg/mL
  MIC: 15.6 µg/mL
S. aureus; S. aureus 1097630
  MIC in combination: 3.9 µg/mL
  MIC: 7.8 µg/mL
S. aureus; S. aureus 1101442
  MIC in combination: 0.97 µg/mL
  MIC: 3.9 µg/mL
S. aureus; S. aureus 1103430
  MIC in combination: 0.48 µg/mL
  MIC: 1.9 µg/mL
S. aureus; S. aureus 1110936
  MIC in combination: 0.48 µg/mL
  MIC: 1.9 µg/mL
S. aureus; S. aureus 1111063
  MIC in combination: 3.9 µg/mL
  MIC: 7.8 µg/mL
S. aureus; S. aureus 1122181
  MIC in combination: 3.9 µg/mL
  MIC: 7.8 µg/mL
S. aureus; S. aureus 1122187
  MIC in combination: 0.48 µg/mL
  MIC: 1.9 µg/mL
S. aureus; S. aureus 1122190
  MIC in combination: 3.9 µg/mL
  MIC: 7.8 µg/mL
S. aureus; S. aureus 1122197
  MIC in combination: 0.48 µg/mL
  MIC: 1.9 µg/mL
S. aureus; S. aureus 1125120
  MIC in combination: 15.6 µg/mL
  MIC: 15.6 µg/mL
S. aureus; S. aureus 1132822
  MIC in combination: 0.97 µg/mL
  MIC: 3.9 µg/mL
S. aureus; S. aureus 1142776
  MIC in combination: 0.48 µg/mL
  MIC: 1.9 µg/mL
S. aureus; S. aureus 1144105
  MIC in combination: 0.48 µg/mL
  MIC: 1.9 µg/mL
S. aureus; S. aureus UAMS-1
  MIC in combination: 0.48 µg/mL
  MIC: 1.9 µg/mL
S. aureus UAMS-1; drug 5 μM in presence of 1.2 μg ml^−1 polymyxin B/trimethoprim
  S. aureus growth, 5 μM: +
S. aureus UAMS-1; drug 50 μM in presence of 1.2 μg ml^−1 polymyxin B/trimethoprim
  S. aureus growth, 50 μM: −
P. aeruginosa PAO1; drug 5 μM in presence of 0.2 μg ml^−1 polymyxin B/trimethoprim
  P. aeruginosa growth, 5 μM: −
P. aeruginosa PAO1; drug 50 μM in presence of 0.2 μg ml^−1 polymyxin B/trimethoprim
  P. aeruginosa growth, 50 μM: −
[1]
  activity against biofilm-associated cells: neither tobramycin, polymyxin B/trimethoprim nor their combination displayed significant activity
[2]; 4 hours post-treatment
  reduction in CFU at hour 4: 2 log
[2]; 24 hours
  reduction in CFU at 24 hr: 7 log
